Data published in patent publication EP0840781B1, “METHODS AND DEVICES FOR THE REMOVAL OF PSORALENS FROM BLOOD PRODUCTS” (Cerus Corporation, priority 1995, dated 1996).

Tests used:
platelet concentrate = assay: Maintenance of pH of platelet concentrate; format: cell-based, human; details: T = test unit (150 µM S-59, 3 Joules/cm^2 UVA, RD 8 hours on day 1)
Method: (§1) To measure the effects of the present compounds and methods of decontamination on platelet function using these four indicators, four samples were prepared for each compound tested, two control samples and two containing compound. […] These were each transferred under sterile conditions to 50 ml centrifuge tubes, then aliquots of each unit were transferred into a second set of 50 ml sterile centrifuge tubes. […] The samples were pipetted gently up and down to mix. […] Samples were treated in one of two different sized bags, having either 3 ml or 8 ml capacity. […] For each compound tested, two control samples without compound were prepared by again removing aliquots of platelet concentrate (17 ml if using an 8 ml bag, 4 ml if using a 3 ml bag) from the same one of the first set of 50 ml centrifuge tubes from which the compound sample was drawn, and dividing into Medibags, as before. […]

[1] = system: GMP-140 expression on platelets; assay: GMP-140 (p-selectin) expression on platelets, CD62 antibody, flow cytometry; format: cell-based, human; details: T = test unit (150 µM S-59, 3 Joules/cm^2 UVA, RD 8 hours on day 1)
Method: as §1

[2] = system: platelets suspended in 35% plasma/65% PAS III; assay: Partitioning and distribution of S-59 in platelet concentrate before and after UVA (3H-S-59, HPLC); details: C0 = 50 µM (FIG. 25A)
Excerpt: […] When designing a "capture" or "scrub" device for psoralen removal, an important consideration is the identification and quantification of the residual levels of low molecular weight photoproducts. Several properties of the platelet mixture (e.g., lipid content, platelet content, hemoglobin/RBC content) can affect the final partitioning of psoralen and the amount of each photoproduct that must be removed during the capture or scrub process.
Upon addition of S-59 to platelets, the S-59 rapidly partitions, establishing an equilibrium between S-59 in the plasma and S-59 within the platelets. […] In addition, higher percentages of S-59 will partition to the platelets if long incubation periods (e.g., greater than 60 minutes) occur between the addition of S-59 and illumination with UVA. The amount of S-59 which partitions to the platelets ultimately determines how much S-59 remains associated with platelets, how much is associated with plasma macromolecules, and how much remains as free photoproduct.
During the UVA illumination process, S-59 undergoes a photochemical reaction to form several low molecular weight photoproducts in addition to associating with macromolecules in both the platelet and the plasma fractions. […]
The S-59 which is not amenable to removal by the scrub/capture process can also be monitored using ^3H-labeled S-59. […]

[3] = HPLC analysis of residual S-59 and photoproducts in PC after UVA and 8-hour treatment with RD containing Dowex XUS-43493; format: physicochemical
Method: Briefly, the assay involved an initial sample preparation which lyses the platelets and solubilizes the S-59 and photoproducts. The supernatant from the sample preparation was then analyzed on a C-18 reverse phase column with a gradient of increasing methanol in KH2PO4 buffer. The major peaks were detected by optical absorbance. […] Samples of the treated PC were then taken and subjected to HPLC for detection of residual S-59 and S-59 photoproducts. Post-incubation levels of photoproducts D, E, and F (S-59) are presented in Table N; photoproducts A, B, C, and G were not detectable by HPLC. Levels of residual photoproducts are average values taken from six independent, photochemically- and RD-treated platelet units. […] The PC was assayed for unbound photoproducts using the HPLC assay discussed above, which quantifies the photoproducts present both within the platelets and in the plasma/PAS III mixture. […] In addition to assaying the complete PC, samples were centrifuged to remove the platelets so that unbound photoproducts in the plasma/PAS III could be analyzed separately. […] To evaluate the efficacy of the RD for reducing the concentration of S-59. platelet samples from the test unit were analyzed for S-59 content by HPLC. […] The concentration of S-59 before and after UVA illumination and the reduction in the concentration of residual S-59 following RD treatment were measured by HPLC analysis. […]

## Cc1oc2c(C)c3oc(=O)cc(C)c3cc2c1COCCN [Compound 2, 4'-(4-amino-2-oxa)butyl-4,5',8-trimethylpsoralen]
Platelet concentrate; Day 2
  pH: 6.94±0.05
Platelet concentrate; Day 5
  pH: 6.92±0.06
Platelet concentrate; Day 7
  pH: 6.91±0.05
[1]; Day 2
  (%) p-Selectin-Positive: 49±5 %
[1]; Day 5
  (%) p-Selectin-Positive: 58±5%
[1]; Day 7
  (%) p-Selectin-Positive: 60±7%
[2]
  time to S-59 equilibrium (uptake by platelets): approximately two
[3]; Post 3 Joule/cm^2 UVA Illumination, of the initial S-59 remained unreacted
  % Residual S- 59: 20.5 ± 2.3%
[3]; Pre-Treatment (0 Joule/cm^2), platelet concentrate, HPLC
  µM S-59: 145 ± 10 µM
